The text below walks through data of article PMC11302837, “Efficacy of BRAF/MEK-inhibitor therapy for epithelioid glioblastoma with a novel BRAFV600 mutation” (Acta Neuropathologica Communications, 2024).

Broadly, the Kp is tissue or fluid exposure divided by exposure in the circulation.

Data set [1] is described as follows: Concentration of BRAF/MEK inhibitors in patient serum/plasma by LC-MS/MS. As to conditions: encorafenib/binimetinib given day 1-3 then discontinued, dabrafenib/trametinib from day 4. In kind it is in vivo, human. The method, then: (§1) Determination of BRAF/MEK inhibitors concentration in plasma and CSF of patients by liquid chromatography–tandem mass spectrometry
Sample preparation of plasma and CSF samples was different. Twenty microliters of plasma were diluted with 180 µL of water and mixed with 200 µL formic acid (1%). An automated solid phase extraction with an ASPEC XL (Gilson, Middleton, USA) and Oasis HLB (Waters, Milford, USA) cartridges were used. The cartridges were conditioned, loaded, washed and finally eluted with 1 mL methanol. The SPE extracts were evaporated to dryness and reconstituted with 200 µL. For quantification, 10-point external calibration curves in blank plasma at the range from 1.95 to 1000 µg/L for all four substances were freshly prepared and measured in parallel.
(§2) Native CSF samples were used with a standard addition method for quantification. A volume of 20 µl was always injected into the Ultimate 3000 HPLC system from Thermo Scientific system coupled to an API4000 tandem mass spectrometer (ABSciex, Darmstadt, Germany). The BRAF and MEK inhibitors encorafenib, binimetinib, dabrafenib and trametinib were separated by reversed phase chromatography with a Synergi 4 μm Hydro-RP 80 A, 150 × 3 mm column (Phenomenex, Torrance, USA).
(§3) The temperature of column was constantly at 40 °C. Determination of the analytes was performed using the multiple reaction monitoring mode with nitrogen as collision gas. For positive ionization, a capillary voltage of 4000 V (positive ion mode) was used. Quantification was performed by the peak area method, and a weighted (1/x) regression of first order yielded the concentrations.
(§4) Moreover, comprehensive analyses of the patients’ CSF and plasma using liquid chromatography-tandem mass spectrometry were performed to determine the concentrations of various MAPKi two, four, and five days after regimen modification, i.e. five, seven, and eight days following initiation of the targeted therapy. There was a clear accumulation of all MAPKi in the patient’s plasma (Table 2). The concentrations determined reside within the therapeutic range of the maximum and minimum plasma concentrations published (Table 2).

Data set [2] is described as follows: Concentration of BRAF/MEK inhibitors in patient CSF by LC-MS/MS. In kind it is in vivo, human. As to conditions: for CSF concentration: CSF via EVD; for Kp: human, CSF/serum, oral. How it is done:
as §1, §2, §3, §4

Data set [3] is described as follows: Tolerability of oral regimen in the patient. In kind it is in vivo, human. The note with it: oral hard capsules and tablets; quantity and size. The method, then: Based on the promising results of the mutational and IHC analyses, a targeted therapy with the BRAF inhibitor, encorafenib and the MEK inhibitor, binimetinib was initiated. The dosage mirrored that of MM with 450 mg of encorafenib (i.e. 6 × 75 mg) administrated daily, and 45 mg of binimetinib (i.e. 3 × 15 mg), administrated twice daily. […] Consequently, after three days, the regimen was modified.

Details of data set [4]: method as in earlier work. As to conditions: serum of patients; ref EMA product information sheet, Delord et al., 2017 [29], Sullivan et al., 2020 [30]; cited from earlier work.
The mark [5] stands for this setting: day 5 after treatment initiation.
Where [6] appears, read: day 7 after treatment initiation.
The mark [7] stands for this setting: day 8 after treatment initiation.

As to `Cn1cnc2c(F)c(Nc3ccc(Br)cc3F)c(C(=O)NOCCO)cc21` [Binimetinib, binimetinib], the Serum concentration in data set [1] (setting [5]) stood at 96.5 ng/mL; in data set [1] (setting [6]) it was 19.1 ng/mL; in data set [1] (setting [7]), 13.8 ng/mL. The CSF concentration in data set [2] (setting [5]) was 10.3 ng/mL; in data set [2] (setting [6]) it was 5.3 ng/mL; in data set [2] (setting [7]), 5.0 ng/mL. Besides, the Kp in data set [2] (setting [5]) was 0.107; in data set [2] (setting [6]) it was 0.277; in data set [2] (setting [7]), 0.362. Further, the “Tolerability by the patient” value in data set [3] is recorded as “poorly tolerated”. In addition, in data set [4], the “C max (maximum plasma concentration)” value is 654 ng/mL. For the same molecule, in data set [4], the “C min (minimum plasma concentration)” value is 51.4 ng/mL.

For `CC(C)(C)c1nc(-c2cccc(NS(=O)(=O)c3c(F)cccc3F)c2F)c(-c2ccnc(N)n2)s1` [Dabrafenib, dabrafenib], the results for the Serum concentration in data set [1] (setting [5]), in data set [1] (setting [6]) and in data set [1] (setting [7]) were 322.9 ng/mL, 188.0 ng/mL and 94.6 ng/mL, respectively. The figures for the CSF concentration in data set [2] (setting [5]), in data set [2] (setting [6]) and in data set [2] (setting [7]) were 5.4 ng/mL, 6.1 ng/mL and 1.5 ng/mL, respectively. In addition, the values for the concentration ratio (Kp) in data set [2] (setting [5]), in data set [2] (setting [6]) and in data set [2] (setting [7]) were 0.017, 0.032 and 0.016, respectively. Further, the “Tolerability by the patient” value in data set [3] was “better tolerated”. In addition, the “C max (maximum plasma concentration)” value in data set [4] is 1478 ng/mL. The “C min (minimum plasma concentration)” value in data set [4] is 26 ng/mL.

For the molecule `COC(=O)N[C@@H](C)CNc1nccc(-c2cn(C(C)C)nc2-c2cc(Cl)cc(NS(C)(=O)=O)c2F)n1` [Encorafenib, encorafenib], the results for the Serum concentration in data set [1] (setting [5]), in data set [1] (setting [6]) and in data set [1] (setting [7]) were 13.5 ng/mL, 5.7 ng/mL and 6.1 ng/mL, respectively. Moreover, the CSF concentration in data set [2] (setting [5]) came out at 2.4 ng/mL; in data set [2] (setting [6]), 1.1 ng/mL; in data set [2] (setting [7]), 1.1 ng/mL. Besides, the Kp was found to be 0.178 in data set [2] (setting [5]), 0.193 in data set [2] (setting [6]) and 0.18 in data set [2] (setting [7]). Also, the “Tolerability by the patient” value in data set [3] is “poorly tolerated”. Besides, the “C max (maximum plasma concentration)” value in data set [4] is 3800 ng/mL. Moreover, the “C min (minimum plasma concentration)” value in data set [4] is 13.9 ng/mL.

Take `CC(=O)Nc1cccc(-n2c(=O)n(C3CC3)c(=O)c3c(Nc4ccc(I)cc4F)n(C)c(=O)c(C)c32)c1` [Trametinib, trametinib]: the Serum concentration turned out to be 8.8 ng/mL in data set [1] (setting [5]), 7.7 ng/mL in data set [1] (setting [6]) and 9.2 ng/mL in data set [1] (setting [7]). In addition, the CSF concentration in data set [2] (setting [5]) was 0.0 ng/mL; in data set [2] (setting [6]) it was 0.3 ng/mL; in data set [2] (setting [7]), 0.4 ng/mL. Also, the Kp was 0 in data set [2] (setting [5]), 0.039 in data set [2] (setting [6]) and 0.043 in data set [2] (setting [7]). Further, the “Tolerability by the patient” value in data set [3] is listed as “better tolerated”. Also, the “C max (maximum plasma concentration)” value in data set [4] is 22.2 ng/mL. In data set [4], the “C min (minimum plasma concentration)” value is 12.1 ng/mL.
